US20180030080A1, “Phosphoramidate nucleoside prodrug for treating viral diseases and cancer, processes for their preparation and their use” (ASAVI, LLC, priority 2016, published 2018)
Where two headings read alike, the source gives them in different places.

Columns and labels:
[1] = tested on: HBV; assay: Anti-HBV activity in the AD-38 cell line using real-time quantitative PCR; assay type: cell-based; settings: against HBV; for EC50: AD-38 cells, 4 days, read-out: EC50; for inhibition, %: concentration not given
Protocol: Anti-HBV activity of prodrugs of general formula 1 determination in the AD-38 cell line using a real-time quanitative PCR. a) Cell cultures. HepG2 AD38 cell line, harboring an integrated over-the-length HBV genomic DNA (Lander S, et. al, Antimicrobal Agents and Chemotherapy, 1997, pg. 1715-1720) were provided by Dr. C. Seeger, Fox Chase Cancer Center, Philadelphia, Pa.). Cells were grown in complete media (DMEM/F12 with 2 mM L-Glutamine (Thermo Scientific, Cat #11320033), 10% Fetal Bovine Serum (ThermoFisher Scientific, Cat#), 1% Antibiotic-antimitotic solution (ThermoFisher Scientific, Cat#15240096), and 0.3 μg/ml tetracyclin (Sigma, Cat # T7660-5G). Cells were plated onto Corning Biocoat 96-well plates (Corning, Cat #356407) in 225 ul of complete media (without teracyclin), 20000 cells/well. The prodrugs of general formula 1 were dissolved first in DMSO (Sigma cat. D2650), then in DMEM/F12 and 9 serial 3× dilutions were prepared and added to cells in 22.5 μl. The final prodrugs concentrations ranged from 10 μM to 1 nM. Cells grown in the presence of tetracyclin were used as a positive control, as HBV replication in this cell line is turned off by thetracyclin. Cell plates were incubated for 4 days at 37 C, 5% CO2. b) HBV DNA isolation. After 4 days, viral DNA was isolated from culture supernatants using PureLink® Pro 96 Genomic DNA Purification Kit (ThermoFisher Scientific, Cat # K183104A), according to manufacturer's recommendations. Eluted DNA samples were stored at −20 C. c) Quantitative real-time PCR (qPCR). PCR was performed on the CFX96™ Real-Time System (Bio-Rad, Hercules, Calif.) using AmpliTaq Gold® DNA Polymerase (Applied Biosystems®).
Ct values (cycle threshold) were obtained for each prodrug sample and normalized to untreated cells, according to formula E=(1/(1+100%))̂(Ct[studied prodrug sample]−Ct[K-]), where E is a normalized expression of studied gene, Ct[K-] and Ct[studied prodrug sample] are Ct values of untreated cells and studied prodrug sample. Inhibition curves were obtained and EC50 values were calculated using the Graph Prizm software (Table 3).

[2] = tested on: HepG2 AD38 cell line; assay: Cytotoxicity (viability, CC50) reported with the anti-HBV test; assay type: cell-based; settings: for viability, %: concentration not given
[3] = tested on: HCV replicon gT3a; assay: HCV replicon assay, genotype gT3a; assay type: cell-based; settings: Hepatitis C virus, mean
Protocol: (§1) Anti-HCV activity (EC50) and cytotoxicity (CC50) of prodrugs of general formula 1. The HCV replicon assay was used to determine the antiviral activity of chemotherapeutic agents of general formula 1 (test compounds). Sovaldi (PSI-7977) was used as the reference drug. The test cell line used in the HCV Replicon Assay was the human hepatoma cell line Huh7 incorporating the HCV replicons synthesized by an outside vendor. 96-well plates were seeded with cells at a density of 7.5×10^3 cells per well in 50 μl of assay media. The compound stock solution was made up freshly in an assay medium (DMEM 1×, Cellgro; cat. #10-013-CV) as a 2× stock. A total of 11 serial 3-fold dilutions of test compounds were prepared from the 2× stock in the assay media ranging from 20 nM-0.2 pM final concentrations. At least 4 hours after seeding the cells, compound treatment was initiated by adding 50 μl of compound dilution to the plates. […] The final DMSO concentration was 0.5%. Cells and inhibitors were incubated for 3 days at 37° C./5% CO2. The media was removed from the plates by gentle tapping. The cells were fixed with 100 μl 1:1 acetone:methanol for 1 minute, washed three times with PBS buffer, and then blocked with 150 μl/well 10% Fetal Bovine Serum (FBS) in PBS for 1 hour at room temperature. The cells were then washed three times with PBS buffer and incubated with 100 μl/well anti-hepatitis C core mAb (Affinity BioReagents; cat. # MA1-080, 1 mg/ml stock diluted 1:4,000 in 10% FBS-PBS) for 2 hours at 37° C. Then, the cells were washed three times with PBS and incubated with 100 μl/well HRP-Goat Anti-Mouse antibody (diluted 1:3.500 in 10% FBS-PBS) for 1 hour at 37° C. […] The reaction was stopped with 2N H2SO4 (100 μl/well), and the absorbance was measured at A490 X on a Victor^3 V 1420 multilabel counter (Perkin Elmer). The EC50 values were calculated for test compounds from the resulting best-fit equations determined by Xlfit software (Table 1).

[4] = tested on: HCV replicon gT4a; assay: HCV replicon assay, genotype gT4a; assay type: cell-based; settings: Hepatitis C virus, mean
Protocol: as §1

[5] = tested on: HCV replicon gT2a; assay: HCV replicon assay, genotype gT2a; assay type: cell-based; settings: Hepatitis C virus, mean
Protocol: Anti-HCV activity (EC50) and cytotoxicity (CC50) of prodrugs of general formula 1. The HCV replicon assay was used to determine the antiviral activity of chemotherapeutic agents of general formula 1 (test compounds). Sovaldi (PSI-7977) was used as the reference drug. The test cell line used in the HCV Replicon Assay was the human hepatoma cell line Huh7 incorporating the HCV replicons synthesized by an outside vendor. 96-well plates were seeded with cells at a density of 7.5×10^3 cells per well in 50 μl of assay media. The compound stock solution was made up freshly in an assay medium (DMEM 1×, Cellgro; cat. #10-013-CV) as a 2× stock. A total of 11 serial 3-fold dilutions of test compounds were prepared from the 2× stock in the assay media ranging from 20 nM-0.2 pM final concentrations. At least 4 hours after seeding the cells, compound treatment was initiated by adding 50 μl of compound dilution to the plates. The final concentrations of compound therefore ranged from 10 nM to 0.1 pM when diluted 1:1 in culture media. The final DMSO concentration was 0.5%. Cells and inhibitors were incubated for 3 days at 37° C./5% CO2. The media was removed from the plates by gentle tapping. The cells were fixed with 100 μl 1:1 acetone:methanol for 1 minute, washed three times with PBS buffer, and then blocked with 150 μl/well 10% Fetal Bovine Serum (FBS) in PBS for 1 hour at room temperature. The cells were then washed three times with PBS buffer and incubated with 100 μl/well anti-hepatitis C core mAb (Affinity BioReagents; cat. # MA1-080, 1 mg/ml stock diluted 1:4,000 in 10% FBS-PBS) for 2 hours at 37° C. Then, the cells were washed three times with PBS and incubated with 100 μl/well HRP-Goat Anti-Mouse antibody (diluted 1:3.500 in 10% FBS-PBS) for 1 hour at 37° C. […] The reaction was stopped with 2N H2SO4 (100 μl/well), and the absorbance was measured at A490 X on a Victor^3 V 1420 multilabel counter (Perkin Elmer). The EC50 values were calculated for test compounds from the resulting best-fit equations determined by Xlfit software (Table 1).

[6] = tested on: HCV replicon gT1b; assay: HCV replicon assay, genotype gT1b; assay type: cell-based; settings: Hepatitis C virus
Protocol: Anti-HCV activity (EC50) and cytotoxicity (CC50) of prodrugs of general formula 1. The HCV replicon assay was used to determine the antiviral activity of chemotherapeutic agents of general formula 1 (test compounds). Sovaldi (PSI-7977) was used as the reference drug. The test cell line used in the HCV Replicon Assay was the human hepatoma cell line Huh7 incorporating the HCV replicons synthesized by an outside vendor. 96-well plates were seeded with cells at a density of 7.5×10^3 cells per well in 50 μl of assay media. The compound stock solution was made up freshly in an assay medium (DMEM 1×, Cellgro; cat. #10-013-CV) as a 2× stock. A total of 11 serial 3-fold dilutions of test compounds were prepared from the 2× stock in the assay media ranging from 20 nM-0.2 pM final concentrations. At least 4 hours after seeding the cells, compound treatment was initiated by adding 50 μl of compound dilution to the plates. […] The final DMSO concentration was 0.5%. Cells and inhibitors were incubated for 3 days at 37° C./5% CO2. The media was removed from the plates by gentle tapping. The cells were fixed with 100 μl 1:1 acetone:methanol for 1 minute, washed three times with PBS buffer, and then blocked with 150 μl/well 10% Fetal Bovine Serum (FBS) in PBS for 1 hour at room temperature. The cells were then washed three times with PBS buffer and incubated with 100 μl/well anti-hepatitis C core mAb (Affinity BioReagents; cat. # MA1-080, 1 mg/ml stock diluted 1:4,000 in 10% FBS-PBS) for 2 hours at 37° C. Then, the cells were washed three times with PBS and incubated with 100 μl/well HRP-Goat Anti-Mouse antibody (diluted 1:3.500 in 10% FBS-PBS) for 1 hour at 37° C. The cells were then washed three times with PBS and developed with an OPD solution, 100 μl/well (1 OPD tablet+12 ml citrate/phosphate buffer+5 μl 30% H2O2 per plate), for 30 minutes in the dark at room temperature. The reaction was stopped with 2N H2SO4 (100 μl/well), and the absorbance was measured at A490 X on a Victor^3 V 1420 multilabel counter (Perkin Elmer). The EC50 values were calculated for test compounds from the resulting best-fit equations determined by Xlfit software (Table 1).

[7] = tested on: HCV replicon gT1a; assay: HCV replicon assay, genotype gT1a; assay type: cell-based; settings: Hepatitis C virus, mean
Protocol: as §1

[8] = tested on: HCV replicon gT5a; assay: HCV replicon assay, genotype gT5a; assay type: cell-based; settings: Hepatitis C virus, mean
Protocol: as §1

[9] = tested on: HCV replicon; settings: cited from earlier work
[10] = tested on: HBV wild-type; settings: HBV wild-type; cited from earlier work
[11] = GT1B, read-out: IC50 HCV gT1b 10% FBS (mean)
[12] = gT1b, 40% NHS, mean, read-out: IC50 HCV gT1b 40% NHS (mean)

Molecule | EC50 [1] | inhibition, % [1] | CC50 [2] | viability, % [2] | also measured
C=CCOC(=O)[C@H](C)N[P@](=O)(OC[C@@H]1O[C@H](n2ccc(=O)[nH]c2=O)CS1)Oc1ccccc1 [1.2(94), allyl (S)-2-{(S)-[(2R,5S)-5-(2,4-dioxo-3,4-dihydro-2H-pyrimidin-1-yl)-[1,3]oxathiolan-2-ylmethoxy]-phenoxy-phosphorylamino}-propanoate] | 300 ± 90 nM | 99% | > 30000 nM | 101% | 
C=CCOC(=O)[C@H](C)N[P@](=O)(OC[C@@H]1O[C@H](n2cc(F)c(=O)[nH]c2=O)CS1)Oc1ccccc1 [1.2(97), allyl (S)-2-{(S)-[(2R,5S)-5-(5-fluoro-2,4-dioxo-3,4-dihydro-2H-pyrimidin-1-yl)-[1,3]oxathiolan-2-ylmethoxy]-phenoxy-phosphorylamino}-propanoate] | 370 ± 50 nM | 99% | > 30000 nM | 91% | 
CC(C)OC(=O)[C@H](C)OC(=O)[C@H](C)NP(=O)(OC[C@H]1O[C@@H](n2ccc(=O)[nH]c2=O)[C@](C)(F)[C@@H]1O)Oc1ccccc1 (stereo partly drawn) [1.2(2), (S)-1-isopropyloxycarbonyl-ethyl (S)-2-{[(2R,3R,4R,5R)-5-(2,4-dioxo-3,4-dihydro-2H-pyrimidin-1-yl)-4-fluoro-3-hydroxy-4-methyl-tetrahydro-furan-2-ylmethoxy]-phenoxy-phosphorylamino}-propanoate] |  |  |  |  | IC50 [3]: 69 nM; IC50 [4]: 80 nM; IC50 [5]: 24 nM; IC50 [6, 11]: 18 nM; IC50 [6, 12]: 34 nM; IC50 [7]: 57 nM; IC50 [8]: 185 nM
C=CCOC(=O)[C@H](C)NP(=O)(OC[C@H]1O[C@@H](n2ccc(=O)[nH]c2=O)[C@](C)(F)[C@@H]1O)Oc1ccccc1 (stereo partly drawn) [1.2(9), allyl (S)-2-{[(2R,3R,4R,5R)-5-(2,4-dioxo-3,4-dihydro-2H-pyrimidin-1-yl)-4-fluoro-3-hydroxy-4-methyl-tetrahydro-furan-2-ylmethoxy]-phenoxy-phosphorylamino}-propanoate] |  |  |  |  | IC50 [3]: 51 nM; IC50 [4]: 100 nM; IC50 [5]: 23 nM; IC50 [6, 11]: 29 nM; IC50 [6, 12]: 34 nM; IC50 [7]: 54 nM; IC50 [8]: 146 nM
CC(C)OC(=O)[C@H](C)OC(=O)[C@H](C)N[P@](=O)(OC[C@@H]1O[C@H](n2ccc(N)nc2=O)CS1)Oc1ccccc1 [1.2(92), (S)-1-isopropoxycarbonyl-ethyl (S)-2-{(S)-[(2R,5S)-5-(4-amino-2-oxo-2H-pyrimidin-1-yl)-[1,3]oxathiolan-2-ylmethoxy]-phenoxy-phosphorylamino}-propanoate] | 800 ± 610 nM | 86% | > 30000 nM | 103% | 
CC(C)(CO)C(=O)SCCOP(=O)(COC[C@H]1OC(n2cnc3c(=O)[nH]c(N)nc32)[C@](C)(O)[C@@H]1O)NCc1ccccc1 (stereo partly drawn) [IDX-184] |  |  |  |  | EC50 [9]: 400 nM
2′-fluoro-6′-methylene-carbocyclic adenosine [FMCA] |  |  |  |  | EC50 [10]: 550 nM
COCCOC(=O)[C@H](C)N[P@](=O)(OC[C@@H]1O[C@H](n2ccc(=O)[nH]c2=O)CS1)Oc1ccccc1 [1.2(96), 2-methoxy-ethyl (S)-2-{(S)-[(2R,5S)-5-(2,4-dioxo-3,4-dihydro-2H-pyrimidin-1-yl)-[1,3]oxathiolan-2-ylmethoxy]-phenoxy-phosphorylamino}-propanoate] | 320 ± 80 nM | 96% | > 30000 nM | 89% | 
C=C1[C@H](CO[P@@](=O)(N[C@@H](C)C(=O)O[C@@H](C)C(=O)OC(C)C)Oc2ccccc2)[C@@H](O)C[C@@H]1n1cnc2c(=O)[nH]c(N)nc21 [1.2(50), (S)-1-isopropoxycarbonyl-ethyl (S)-2-{(S)-[(1R,3S,5S)-3-(2-amino-6-oxo-1,6-dihydro-purin-9-yl)-5-hydroxy-2-methylene-cyclopentylmethoxy]-phenoxy-phosphorylamino}-propanoate] | 40 ± 30 nM | 100% | > 30000 nM | 95% | 
CC(C)OC(=O)[C@H](C)OC(=O)[C@H](C)N[P@](=O)(OC[C@@H]1O[C@H](n2cc(F)c(N)nc2=O)CS1)Oc1ccccc1 [1.2(93), (S)-1-isopropoxycarbonyl-ethyl (S)-2-{(S)-[(2R,5S)-5-(4-amino-5-fluoro-2-oxo-2H-pyrimidin-1-yl)-[1,3]oxathiolan-2-ylmethoxy]-phenoxy-phosphorylamino}-propanoate] | 40 ± 10 nM | 93% | > 30000 nM | 94% | 
COc1nc(N)nc2c1ncn2[C@@H]1O[C@H](COP(=O)(N[C@@H](C)C(=O)OC(C)C)Oc2ccccc2)[C@@H](O)[C@@]1(C)F (stereo partly drawn) [PSI-353661] |  |  |  |  | EC90 ([9]; replicon assay): 8 nM; increase in potency compared to the guanosine analogue ([9]; versus β-D-2′-deoxy-2′-R-fluoro-2′-β-C-methylguanosine): > 1000 fold
